Assay results as given in publication PMC10458458, “Characterization of Anticancer Effects of the Analogs of DJ4, a Novel Selective Inhibitor of ROCK and MRCK Kinases” (Pharmaceuticals, 2023).

Legend:
[1] = tested on: MDA-MB-231 breast cancer cells; assay: Cell migration (scratch/wound healing) assay; format: cell-based, human; conditions: MDA-MB-231, 2.5 µM for 24 h, then 9 h migration in compound-free medium; vehicle = 100%
Procedure: Lastly, we examined the effects of these four analogs on migration of MDA-MB-231 breast cancer cells. Scratch assays were performed on cells treated with the various analogs for 24 h and then allowed to migrate into the scratched area for 9 h in compound-free media. […] Due to limited solubility, DJ-Morpholine was not tested for its effect on cell migration.
Figure 9 DJ4 analogs inhibit migration of MDA-MB-231 breast cancer cells. (A) MDA-MB-231 cells were treated with 2.5 µM concentration of DJ4 analogs for 24 h. At the end of the treatment period, uniform scratches were made across the monolayer of cells. The cells were allowed to migrate in the scratched area for 9 h in a compound-free medium. The cells were stained with calcein (green) and propidium iodide (red) to study live and dead cell populations in the scratched area. (B) The distance migrated by the treated cells was normalized to vehicle control treated cells. Statistical significance was determined by one-way ANOVA followed by Dunnett’s multiple comparison test. The error bars indicate SEM from triplicates of the experiment. *** p < 0.001. TEXT PRINTED IN THE PICTURE: (B) DMSO: % Migration: 100 | (B) DJ4: % Migration: 32 *** | (B) DJ110: % Migration: 28 *** | (B) DJ Allyl: % Migration: 36 *** | (B) DJE4: % Migration: 48 ***
Migration (scratch/wound healing) assays were performed using published procedures. Briefly, MDA-MB-231 cells were grown to confluence, and cells were treated with DMSO (vehicle control), DJ4, and its active analogs at 2.5 µM concentration for 24 h. At the end of the treatment period, uniform scratches were made in the monolayer of cells. The cells were allowed to migrate for 9 h in a compound-free medium. Light microscopic images were obtained at 0 h and 9 h after creating scratches. The width of the scratches was measured by using AxioVision software (AxioVision Inc., Carl Zeiss, Jena, Germany). The percentage of migration in each treatment at 9 h was calculated in comparison to 0 h readings. Furthermore, the percent migration in treatment groups was normalized to vehicle control (considering 100% migration). The experiment was performed in triplicate. Viability of the cells at the migration area was studied to confirm that the anti-migration effect of the analogs at the tested concentration and duration is independent of cell death. At the end of the migration period, cells were stained with calcein (Invitrogen, Waltham, MA, USA) and propidium iodide (Invitrogen, Waltham, MA, USA) dyes, as per the manufacturer’s protocol, which stain the live and dead cells, respectively.

CCRF-CEM = assay: NCI-60 screen (SRB); format: cell-based, human; conditions: CCRF-CEM (Leukemia), 10 µM, 48 h; negative = cell death vs time zero
Text: (§1) The selected active compounds were screened at NCI, as a part of In Vitro Cell Line Screening Project (IVCLSP), for their effect on cell growth in 60 different cancer cell lines. The 60 human cancer cell line panel included leukemia, melanoma, non-small cell lung cancer, colon, central nervous system (CNS), ovarian, renal, prostate, and breast cancer cell lines. The detailed procedure and applications of NCI-60 cell line screening can be found at https://dtp.cancer.gov/discovery_development/nci-60/default.htm (accessed on 9 January 2023). Briefly, cells were plated in 96-well plates and incubated for 24 h. One set of cells was fixed with trichloroacetic acid at time 0 h (Tz), and SRB (sulphorhodamine B) assays were performed to quantify the cells. The remaining set of cells were treated with 10 µM single concentration of each compound and incubated for 48 h (Te) after which the cells were fixed, and the SRB assays were performed. Data are presented as percent growth relative to the control as 100% according to the following calculations:
(§2) When Te >/= Tz. Growth(%)=Te−Tz/C−Tz∗100 and when Te < Tz. (1) Growth(%)=Te−Tz/Tz∗100
(§3) Values between 0–100 indicate cell growth, zero (0) indicates no cell growth, values < 0 indicate cell death.

NCI/ADR-RES = assay: NCI-60 screen (SRB); format: cell-based, human; conditions: for percent cell growth: NCI/ADR-RES (Ovarian Cancer), negative = cell death vs time zero; for percent cell growth / increase in cell number: 10 µM, 48 h; for increase in cell number: NCI/ADR-RES (ovarian)
Text: as §1, §2, §3

OVCAR-3 = assay: NCI-60 screen (SRB); format: cell-based, human; conditions: OVCAR-3 (Ovarian Cancer), 10 µM, 48 h; negative = cell death vs time zero
Text: as §1, §2, §3

RXF 393 = assay: NCI-60 screen (SRB); format: cell-based, human; conditions: RXF 393 (Renal Cancer), 10 µM, 48 h; negative = cell death vs time zero
Text: as §1, §2, §3

U251 = assay: NCI-60 screen (SRB); format: cell-based, human; conditions: U251 (CNS Cancer), 10 µM, 48 h; negative = cell death vs time zero
Text: as §1, §2, §3

ROCK1 = ROCK1 (Homo sapiens, UniProt Q13464); assay: Cell-free biochemical kinase activity assay (pMYPT1 immunoblot); parameters: purchased Invitrogen; conditions: for inhibition at 1 µM: cell-free screen of 27 analogs, read-out: inhibition of MYPT1 phosphorylation
Chain of ROCK1 (Q13464 whole entry): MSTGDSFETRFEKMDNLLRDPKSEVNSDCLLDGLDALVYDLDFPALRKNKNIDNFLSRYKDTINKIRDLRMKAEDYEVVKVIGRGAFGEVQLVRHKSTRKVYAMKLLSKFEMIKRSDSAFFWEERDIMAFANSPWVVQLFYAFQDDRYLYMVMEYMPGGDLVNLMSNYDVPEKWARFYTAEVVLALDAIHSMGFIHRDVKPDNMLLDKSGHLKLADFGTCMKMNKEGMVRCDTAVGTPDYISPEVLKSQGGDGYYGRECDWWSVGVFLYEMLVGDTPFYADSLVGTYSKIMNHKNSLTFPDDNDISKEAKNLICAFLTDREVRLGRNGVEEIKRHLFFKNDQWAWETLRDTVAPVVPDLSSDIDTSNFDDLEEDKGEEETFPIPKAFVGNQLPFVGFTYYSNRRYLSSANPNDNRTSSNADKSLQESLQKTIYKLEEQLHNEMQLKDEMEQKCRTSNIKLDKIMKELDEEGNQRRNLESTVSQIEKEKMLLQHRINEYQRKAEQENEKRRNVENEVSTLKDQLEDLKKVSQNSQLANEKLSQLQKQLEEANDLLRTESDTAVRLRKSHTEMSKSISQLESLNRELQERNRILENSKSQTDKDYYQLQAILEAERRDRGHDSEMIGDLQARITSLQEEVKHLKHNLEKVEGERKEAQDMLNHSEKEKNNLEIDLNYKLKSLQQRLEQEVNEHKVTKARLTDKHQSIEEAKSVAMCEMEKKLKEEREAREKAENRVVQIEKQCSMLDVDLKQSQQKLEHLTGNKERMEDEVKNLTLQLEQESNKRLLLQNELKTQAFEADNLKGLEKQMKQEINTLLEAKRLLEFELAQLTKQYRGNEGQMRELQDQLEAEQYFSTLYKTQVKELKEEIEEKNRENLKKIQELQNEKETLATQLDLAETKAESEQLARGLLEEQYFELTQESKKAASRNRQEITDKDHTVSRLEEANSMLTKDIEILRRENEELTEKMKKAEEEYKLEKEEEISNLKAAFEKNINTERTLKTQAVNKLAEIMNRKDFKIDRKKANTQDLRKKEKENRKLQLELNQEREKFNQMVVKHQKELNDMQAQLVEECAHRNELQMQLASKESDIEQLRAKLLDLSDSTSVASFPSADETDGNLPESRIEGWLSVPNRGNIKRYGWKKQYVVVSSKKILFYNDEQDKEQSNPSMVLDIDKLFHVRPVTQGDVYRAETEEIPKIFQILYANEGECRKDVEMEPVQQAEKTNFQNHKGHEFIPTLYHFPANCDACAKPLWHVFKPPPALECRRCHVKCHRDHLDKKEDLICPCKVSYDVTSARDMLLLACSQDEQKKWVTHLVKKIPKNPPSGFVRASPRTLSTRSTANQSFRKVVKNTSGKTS
Procedure: (§4) Cell-free biochemical kinase inhibitory activity of these compounds was evaluated at 1 µM concentration using the previously described ROCK1 kinase activity assay. Among the 27 analogs, we identified four analogs (DJ110, DJ-Allyl, DJE4, and DJ-Morpholine) with >50% inhibition of MYPT1 phosphorylation (Supplementary Figure S1). These four compounds were selected for further evaluation at 1 µM and 0.1 µM for their in vitro inhibitory activity against ROCK1, ROCK2, MRCKα, and MRCKβ kinases.
(§5) Cell-free biochemical kinase activity was assayed using published procedures. Briefly, recombinant ROCK1 (9.48 nM) or ROCK2 (8.26 nM; Invitrogen, Waltham, MA, USA) was incubated in the presence of 0.1 and 1 µM concentrations of DJ4 analogs or DMSO in ROCK-assay buffer at room temperature (RT) for 10 min. MRCKα and MRCKβ (2 ng/µL; Invitrogen) assays were performed in the assay buffer recommended by the manufacturer. Recombinant MYPT1 (20 ng/µL; Millipore) and ATP (5 µM) were added to initiate the reaction. The reaction was incubated at 30 °C for 20 min. Western blot analysis of these samples for phosphorylation of MYPT1 was performed as per the method mentioned in our earlier publication. Briefly, an equal amount of sample was loaded on Bis-Tris gel (Novex, Life Technologies, Carlsbad, CA, USA), proteins were electrophoresed and transferred to PVDF membranes. The blots were probed with anti-pMYPT1 (Thr696) or anti-MYPT1 (Millipore) antibodies.
Figure S1. Screening of analogs in the in vitro kinase activity assay to identify […]
Kinase inhibitory activity of the 27 compounds was evaluated by in vitro cell-free biochemical kinase activity assay. The compounds (1 µM) were incubated with recombinant ROCK1 (9.48nM), recombinant MYPT1 (a kinase substrate, 84 nM) and ATP (25 µM). Phosphorylation status of the substrate (pMYPT1) was analyzed to study the […]

ROCK2 = ROCK2 (Homo sapiens, UniProt O75116); assay: as above; parameters: purchased Invitrogen
Chain of ROCK2 (O75116 whole entry): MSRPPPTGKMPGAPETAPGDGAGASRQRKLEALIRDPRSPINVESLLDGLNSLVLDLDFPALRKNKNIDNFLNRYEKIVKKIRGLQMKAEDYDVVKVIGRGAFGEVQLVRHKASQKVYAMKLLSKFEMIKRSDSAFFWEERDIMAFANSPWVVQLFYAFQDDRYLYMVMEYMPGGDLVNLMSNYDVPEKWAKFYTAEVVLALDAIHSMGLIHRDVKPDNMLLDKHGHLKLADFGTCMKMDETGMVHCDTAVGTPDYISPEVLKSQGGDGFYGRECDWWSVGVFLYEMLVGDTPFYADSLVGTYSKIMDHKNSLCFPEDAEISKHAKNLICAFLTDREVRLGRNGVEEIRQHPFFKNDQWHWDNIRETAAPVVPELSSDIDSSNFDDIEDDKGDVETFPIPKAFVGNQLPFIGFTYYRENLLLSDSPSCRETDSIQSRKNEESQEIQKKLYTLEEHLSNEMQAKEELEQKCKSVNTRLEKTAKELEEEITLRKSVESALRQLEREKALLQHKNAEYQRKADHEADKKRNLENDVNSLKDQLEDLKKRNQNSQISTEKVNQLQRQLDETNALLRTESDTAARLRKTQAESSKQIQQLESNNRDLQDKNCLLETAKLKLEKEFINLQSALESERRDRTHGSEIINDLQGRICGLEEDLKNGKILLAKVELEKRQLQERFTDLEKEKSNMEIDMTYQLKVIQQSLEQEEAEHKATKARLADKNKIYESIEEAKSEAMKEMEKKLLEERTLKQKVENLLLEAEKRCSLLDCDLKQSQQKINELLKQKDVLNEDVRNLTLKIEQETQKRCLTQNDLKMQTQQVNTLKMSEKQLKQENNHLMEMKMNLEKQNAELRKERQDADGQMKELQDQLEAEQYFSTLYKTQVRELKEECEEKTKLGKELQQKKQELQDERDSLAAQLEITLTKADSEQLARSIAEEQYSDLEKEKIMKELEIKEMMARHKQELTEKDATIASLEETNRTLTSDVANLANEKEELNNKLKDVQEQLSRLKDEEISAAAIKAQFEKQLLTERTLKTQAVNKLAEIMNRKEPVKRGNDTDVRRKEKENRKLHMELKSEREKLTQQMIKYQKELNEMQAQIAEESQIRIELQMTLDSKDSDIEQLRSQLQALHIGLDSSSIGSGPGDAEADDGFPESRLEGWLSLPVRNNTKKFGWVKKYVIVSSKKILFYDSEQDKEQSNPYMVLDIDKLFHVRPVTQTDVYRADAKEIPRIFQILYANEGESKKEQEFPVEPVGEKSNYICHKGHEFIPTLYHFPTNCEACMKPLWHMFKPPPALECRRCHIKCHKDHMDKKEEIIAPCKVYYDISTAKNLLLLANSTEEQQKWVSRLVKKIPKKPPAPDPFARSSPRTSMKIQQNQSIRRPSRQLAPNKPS
Procedure: as §4, §5

Row | Structure (SMILES) | % Migration compared to control [1] [%] | percent cell growth (CCRF-CEM) [%] | percent cell growth (NCI/ADR-RES) [%] | increase in cell number (NCI/ADR-RES) | percent cell growth (OVCAR-3) [%] | percent cell growth (RXF 393) [%] | percent cell growth (U251) [%] | inhibition of kinase activity (qualitative immunoblot) (ROCK1; ROCK1, 1 µM) | inhibition at 1 µM (ROCK1; ROCK1, 1 µM) [%] | inhibition of kinase activity (qualitative immunoblot) (ROCK2; ROCK2, 1 µM) | IC50 (NCI/ADR-RES; Homo sapiens, NCI/ADR-RES ovarian cancer cell line, NCI-60 screen) [µM] | inhibition of kinase activity (qualitative immunoblot) (ROCK1; ROCK1, 0.1 µM) | inhibition of kinase activity (qualitative immunoblot) (ROCK2; ROCK2, 0.1 µM)
1 | CC/N=C1\NC(=O)/C(=C\c2c[nH]c3ncccc23)S1 [DJE4] | 48 | 3.0 | 29.7 | 29% | −2.1 | −39.3 | −9.5 | almost completely inhibited | > 50 | almost completely inhibited | – | – | –
2 | O=C1N/C(=N\CCc2ccccc2)S/C1=C/c1c[nH]c2ncccc12 [DJ4] | 32 | 9.9 | 72.9 | – | 5.6 | −20.2 | 15.8 | significantly inhibit | – | significantly inhibit | > 10 | ineffective | ineffective
3 | O=C1N/C(=N\Cc2ccccc2)S/C1=C/c1c[nH]c2ncccc12 [DJ110] | 28 | – | – | – | – | – | – | significantly inhibit | > 50 | significantly inhibit | – | significantly inhibited | significantly inhibited
4 | Cl.O=C1NC(=NCCc2ccccc2)SC1=Cc1c[nH]c2ncccc12 (mixture of isomers) [DJ4-HCl] | – | 5.5 | 58.4 | – | 3.4 | −30.1 | 7.6 | – | – | – | – | – | –
5 | O=C1N/C(=N\CCN2CCOCC2)S/C1=C/c1c[nH]c2ncccc12 [DJ-Morpholine] | – | – | – | – | – | – | – | almost completely inhibited | > 50 | almost completely inhibited | – | – | –
6 | C=CC/N=C1\NC(=O)/C(=C\c2c[nH]c3ncccc23)S1 [DJ-Allyl] | 36 | 7.1 | 42.1 | ~ 40% | −7.0 | −41.3 | 0.8 | almost completely inhibited | > 50 | almost completely inhibited | – | – | –
